From paper PMC13382108 (Frontiers in Pharmacology, 2026)

Experiment: In vivo pharmacokinetic study in rats (plasma, HPLC)
Settings: SD rats, intragastric, FLU 40 mg/kg alone, as TF-1 (+48 mg/kg TDS) or TF-2 (+96 mg/kg TDS)
Method: A total of 25 healthy male SD rats were used. After adaptive feeding, rats were randomly divided into five groups (n = 5). […] Blood samples were placed in heparin-pretreated centrifuge tubes. Whole blood was centrifuged at 6,000 rpm for 3 min to separate plasma, which was stored at −20 °C or −80 °C for subsequent analysis. […] The mean plasma concentration-time curves were plotted. The non-compartmental model in DAS 2.1.1 software was used to calculate major pharmacokinetic parameters. The pharmacokinetic interactions after combined medication were evaluated by comparing parameters between monotherapy groups and TF combination groups.

CNCCC(Oc1ccc(C(F)(F)F)cc1)c1ccccc1 (stereo not shown) [FLU, Fluoxetine]
t1/2z of FLU: 6.563 h
